Measured values from patent US12723029B2, “Mitochondrial ATP inhibitors targeting the gamma subunit prevent metastasis” (LUNELLA BIOTECH, INC., priority 2020, dated 2026).

Columns and labels:
MDA-MB-231 cells [1] = experiment: CAM assay: tumor growth and spontaneous metastasis of MDA-MB-231 xenografts; type: in vivo, chicken embryo (White Leghorn eggs)
[2] = system: mitochondrial ATP production in MDA-MB-231 cells; experiment: ATP assay using BioTracker ATP-Red 1 (flow cytometry); type: cell-based, human
Description: FIG. 7 compares the fold-change of BioTracker ATP-Red (signal mean) between the control and MDA-MB-231 cells treated with Bedaquiline. […] The data in FIG. 7 based on two-way ANOVA, Sidak's multiple comparisons test, *p<0.05, ** p<0.005, ***p<0.0005, ****p<0.0001.
ATP assay using BioTracker ATP-Red 1: Cells were stained with BioTracker ATP-Red 1 after various treatments. After 30 minutes of incubation, the cells were washed twice with DPBS, collected and dissociated into a single-cell suspension with a 40 μm cell strainer. The cells were analyzed using the Attune N×T Flow Cytometer. Means of the signal (at 570 nm) were compared.

MDA-MB-231 cells [3] = experiment: 3D anchorage independent growth (mammosphere formation) assay; type: cell-based, human
Description: 3D Anchorage Independent Growth Assay: This assay is also referred to as the mammosphere formation assay. A single-cell suspension was prepared using enzymatic, and manual disaggregation (25-g needle). Then, cells were plated at a density of 500 cells/cm^2 in mammosphere medium (DMEM-F12+1X B-27 Plus Supplement+20 ng/ml EGF+Pen/Strep) under non-adherent conditions, in culture dishes pre-coated with (2-hydroxyethylmethacrylate) (poly-HEMA, Sigma Aldrich Inc.), called “mammosphere plates.” Cells were grown for 5 days and maintained in a humidified incubator at 37° C. After 5 days of culture, 3D-mammospheres >50 μm were counted using an eye piece (“graticule”), and the percentage of cells plated which formed spheres was calculated and is referred to as percent mammosphere formation, and was normalized to one (1=100% MFE). 3D mammosphere formation efficiency (MFE) was analyzed in both the ATP-low and ATP-high sub-populations of cells. All 3D mammosphere experiments were performed in triplicate, at least 3 times independently.

ATP5F1C = target: T1, ATP5F1C (Homo sapiens, UniProt P05496+P36542); experiment: Western blot of ATP5F1C protein expression in MDA-MB-231 2D monolayers; type: cell-based; conditions: 0.1, 1 and 10 μM, especially 10 μM, 24-120 hours, relative to DMSO
T1 construct: Western blot analysis of MDA-MB-231 2D cell monolayers treated with Bedaquiline; endogenous in cells; host or cells: MDA-MB-231 (ATCC)
Description: The binding of Bedaquiline to ATP5F1C in situ induces degradation of the protein. […] The effect was both time- and concentration-dependent.
(§1) Western Blotting: Cells were lysed in RIPA buffer (Sigma Aldrich, Inc.) containing one tablet of Complete TM inhibitor mix (Roche Applied Science, Indianapolis) and one tablet of PhosSTOP™ […] per 10 mL of buffer and loaded onto SDS-polyacrylamide gels. The gels were transferred to 0.2 μm nitrocellulose membranes, using the Trans-Blot Turbo Transfer System (Bio-Rad, Inc.) Membranes were incubated with the respective primary antibodies diluted in Tris-buffered saline, 0.1% Tween 20 (Sigma Aldrich, Inc.) and 5% Bovine Serum Albumin (BSA; Sigma Aldrich Inc.) (TBST), and incubated overnight at 4° C. Then, the blots were washed and incubated with appropriate secondary antibodies and detected using Super Signal West Pico Chemiluminescent Substrate (Thermo Scientific, Inc.), using the G-Box (Syngene, Inc). Antibodies and their dilutions used for Western blot analysis were as follows: mouse anti-ATP5F1C 1:500, mouse anti-β-actin 1:10,000, rabbit anti-PARP 1:1,000, rabbit anti-p21 1:1,000. The resulting immune-blot images were acquired using GeneSys Software (Syngene, Inc.).

MCF10A cells = experiment: 2D monolayer growth, MCF10A; conditions: MCF10A normal control mammary epithelial cells; 10 μM
p21 = experiment: Western blot of p21 protein expression; type: cell-based, human; conditions: MDA-MB; 0.1, 1 and 10 μM; 120 hours
Description: (§2) Beta-actin was used as a control for equal loading.
as §1

MDA-MB-231 cells [4] = experiment: Live cell/dead cell analysis by FACS; type: cell-based, human; conditions: 1 and 10 μM
Description: FIGS. 10D-10F show the results of live cell/dead cell analysis. MDA-MB-231 cells were treated with Bedaquiline (1 and 10 μM) or vehicle alone, for 48, 72 and 120 hours, and then subjected to live/dead analysis by FACS. […] However, at 72 and 120 hours (FIGS. 10E and 10F), a decrease in the live cell population and an increase in the dead cell population can be seen. […] Two-way ANOVA, Sidak's multiple comparisons test, ns=not significant, *p<0.01, **p<0.001, ***p<0.0005.

MDA-MB-231 cells [5] = experiment: 2D monolayer growth, MDA-MB-231; type: cell-based, human; conditions: 10 μM, time-dependent
PARP = experiment: Western blot of PARP protein expression; type: cell-based, human; conditions: MDA-MB; 0.1, 1 and 10 μM; 120 hours
Description: as §2, §1

chick embryos = experiment: CAM assay: embryo toxicity; design: species or system chicken (White Leghorn); conditions: all concentrations tested in vivo; daily for 8 days
Description: Next, to test in vivo activity, the well-established CAM assay was used with MDA-MB-231 cells, to measure the effect of Bedaquiline effects on tumor growth, spontaneous metastasis and embryo toxicity. FIG. 11A illustrates the timeline for the CAM assay. An inoculum of 1×10^6 MDA-MB-231 cells was added onto the CAM of each egg (day E9) and then eggs were randomized into groups. On day E10, tumors were detectable and they were then treated daily for 8 days with vehicle alone (1% DMSO in PBS) or Bedaquiline. After 8 days of drug administration, on day E18, all tumors were weighed, and the lower CAM was collected to evaluate the number of metastatic cells, as analyzed by qPCR with specific primers for Human Alu sequences. Before each drug administration, treatment tolerability was evaluated by scoring the number of live and dead chicken embryos.
Tumor Growth, Metastasis and Embryo Toxicity Assays: Xenograft assays were carried out by INOVOTION (Société: 811310127), La Tronche-France. […] For tumor growth assays, at least 14 tumor samples were collected and analysed per group (N≥14). […] Genomic DNA was extracted from the CAM (commercial kit) and analyzed by qPCR with specific primers for Human Alu sequences. […] Before each administration, the treatment tolerability was evaluated by scoring the number of live and dead embryos.

MDA-MB-231 cells [6] = experiment: Cell migration assay (Transwells); type: cell-based, human; conditions: 10 μM, 32 hours then 16 hours in Transwells
Description: MDA-MB-231 cells were cultured in presence of Bedaquiline (10 μM) for 32 hours and moved to the Transwells for 16 hours in presence of Bedaquiline (10 μM). Unpaired t-test, **p<0.005.
Cell Migration Assays: Briefly, 3.5×10^4 cells in 0.5 ml of serum-free DMEM with 0.1% BSA were added to the wells of 8-μm pore, non-coated membrane modified Boyden chambers (Transwells). The lower chambers contained 10% fetal bovine serum in DMEM to serve as a chemo-attractant. Cells were incubated at 37° C. and allowed to migrate throughout the course of 16 hours. Noninvasive cells were removed from the upper surface of the membrane by scrubbing with cotton swabs. Chambers were stained in 0.5% crystal violet diluted in 100% methanol for 30-60 min, rinsed in water and examined under a bright-field microscope. Values for invasion and migration were obtained by counting five fields per membrane (20× objective) and represent the average of three independent experiments.

MDA-MB-231 cells [7] = experiment: Cell cycle analysis by FACS; type: cell-based, human
Description: FIGS. 10A-10C show cell cycle populations for MDA-MB-231 cells treated with Bedaquiline (1 and 10 μM) or vehicle alone, after 48, 72 and 120 hours, respectively. Cell cycle analysis was performed using FACS. […] However, at 72 and 120 hours, a decrease in the S-phase population and a concomitant increase in the sub-G0-G1 population can be seen in FIGS. 10B and 10C. Two-way ANOVA, Sidak's multiple comparisons test, ns=not significant, *p<0.01, **p<0.001, ***p<0.0005.
Cell Cycle Analysis by FACS: Cell-cycle analysis was performed on the ATP-high and ATP-low cell sub-populations, by FACS analysis using the Attune N×T Flow Cytometer. Briefly, after trypsinization, the re-suspended cells were incubated with propidium iodide, as per the manufacturer's recommendations (Merck Millipore, Inc.). At least 25,000 events were analyzed per condition. Gated cells were categorized into cell-cycle stages.

SMILES: CCCCCCCCCCCCCC(=O)OCCCCc1ccc2nc(OC)c([C@@H](c3ccccc3)[C@@](O)(CCN(C)C)c3cccc4ccccc34)cc2c1 [structure [4B]]
- potency relative to unconjugated Bedaquiline, inhibiting spontaneous metastasis (MDA-MB-231 cells [1]; initial/early assessment, CAM assay): 2-5 fold
- potency relative to unconjugated Bedaquiline, inducing ATP-depletion ([2]; initial/early assessment): 2-5 fold
- potency relative to unconjugated Bedaquiline, inhibiting mammosphere formation (MDA-MB-231 cells [3]; initial/early assessment): 2-5 fold

SMILES: COc1nc2ccc(Br)cc2cc1[C@@H](c1ccccc1)[C@@](O)(CCN(C)C)c1cccc2ccccc12 [Bedaquiline, (1R,2S)-1-(6-bromo-2-methoxyquinolin-3-yl)-4-(dimethylamino)-2-naphthalen-1-yl-1-phenylbutan-2-ol]
- inhibition of spontaneous metastasis (MDA-MB-231 cells [1]; CAM, 120 μM treatment, daily for 8 days, qPCR Human Alu, vs control): 84%
- tumor growth (average tumor weight) (MDA-MB-231 cells [1]; CAM, treated daily for 8 days, day E18): no statistically significant effect
- levels of ATP5F1C protein expression (ATP5F1C): reduced in a sustained way
- inhibition at 10 µM ([2]; Homo sapiens, MDA-MB-231, 10 μM, 120 hours of treatment, read-out: maximal inhibition of mitochondrial ATP production): 75%
- 2D monolayer growth (MCF10A cells): No effect
- p21 protein expression (p21): decreased in a concentration-dependent manner
- apoptotic cell population (early or late) (MDA-MB-231 cells [4]; 72 and 120 hours): no increase
- dead cell population (MDA-MB-231 cells [4]; 72 and 120 hours): increase
- live cell population (MDA-MB-231 cells [4]; 72 and 120 hours): decrease
- live/dead cell populations (MDA-MB-231 cells [4]; 48 hours): No effects were detectable
- 2D monolayer growth (MDA-MB-231 cells [5]): effectively inhibits 2D growth
- PARP protein expression (PARP): decreased in a concentration-dependent manner
- toxicity for chick embryos (egg survival) (chick embryos): not toxic
- block of cell migration (MDA-MB-231 cells [6]): ~ 50%
- block of 3D mammosphere formation (MDA-MB-231 cells [3]; MDA-MB-231, 10 μM): ~ 65%
- S-phase population (MDA-MB-231 cells [7]; 1 and 10 μM, 72 and 120 hours): decrease
- sub-G0-G1 population (MDA-MB-231 cells [7]; 1 and 10 μM, 72 and 120 hours): increase
- cell cycle populations (MDA-MB-231 cells [7]; 1 and 10 μM, 48 hours): No effects were detectable
- increase in the sub-G0-G1 population (MDA-MB-231 cells [7]; after 120 hours of treatment): 2 fold
- reduction of cells in S-phase (MDA-MB-231 cells [7]; after 120 hours of treatment): 2 fold
